According to PMC6896740, “Safety, tolerability, pharmacokinetics, and pharmacodynamics of PF-06650833, a selective interleukin-1 receptor-associated kinase 4 (IRAK4) inhibitor, in single and multiple ascending dose randomized phase 1 studies in healthy subjects” (Arthritis Research & Therapy, 2019):

Experiment: clinical
Details: human, in vivo; for AUC(0-t): AUClast; for Tmax: median (range); for Vd/F: Vz/F
Excerpt: Study 1 (B7921001; NCT02224651) was a 96-day, phase 1, within-cohort, randomized, double-blind, sponsor-open, placebo-substitution, five-period crossover, SAD study in healthy adult subjects (Fig. 1a). Subjects were sequentially enrolled into four cohorts of ten subjects each. Within each cohort, the subjects were randomized into a maximum of five periods. Within each period, eight subjects and two subjects were randomized to receive PF-06650833 and placebo, respectively. In this placebo-substitution design, all subjects within a cohort received one or more doses of PF-06650833 and/or placebo. Single oral doses of PF-06650833 IR formulations from 1 to 6000 mg, and MR formulations from 30 to 300 mg, were administered in fasted (overnight fast of ≥ 10 h) and/or fed (high-fat breakfast meal) states. Doses were escalated sequentially by period within each cohort (see Fig. 1a for final dosing scheme), based upon the evaluation of ≥ 48 h of safety and tolerability for all subjects and ≥ 8 h of PK data for at least six subjects receiving PF-06650833 and one subject receiving placebo. Dose escalation was to cease when either the limits of safety and/or tolerability were reached, the projected exposure at the subsequent dose exceeded the toxicokinetic limit (TK) established based on the no observable adverse effect level (NOAEL) in relevant animal studies, or a plateau in exposure was reached.
The effects of food on the plasma PK profile of the IR and MR formulations were explored in cohorts 1 and 3, respectively, by administering 30 mg doses of PF-06650833 in a fasted state and after a high-fat meal. A 1000-mg dose of the IR formulation was also tested in cohort 3 in an attempt to identify a maximum tolerated dose (MTD). Since TK limits were not reached with the IR formulation at doses up to 1000 mg, the IR doses were escalated to 2000 and 6000 mg with a high-fat meal in cohort 4 (Fig. 1a).
For both studies, samples of blood (and urine in study 2) were taken for evaluation of PK/PD parameters (see Additional file 1: Supplemental Methods). PK samples were obtained at the nominal time relative to dosing (± 10%). Plasma and urine samples were analyzed using validated, sensitive, and specific liquid chromatography tandem mass spectrometric methods (at Pfizer Inc., Groton, CT, USA, for study 1 and at Worldwide Pharmacokinetics, Dynamics and Metabolism, Cambridge, MA, USA, for study 2). The lower limit of quantification for PF-06650833 in plasma was 0.0500 ng/mL. The lower limit of quantification for PF-06650833 in urine was 1.00 ng/mL. Serum samples were also analyzed for hsCRP, and plasma samples were analyzed for 4β-hydroxycholesterol and cholesterol.
PK parameters were calculated using non-compartmental analysis of concentration-time data. For study 1 only, data from cohort 1 (period 4 [IR 30 mg] versus period 5 [IR 30 mg + food]) and cohort 3 (period 2 [MR 30 mg] versus period 3 [MR 30 mg + food]) were used to estimate the effect of food intake. Cmax and AUC were calculated for each subject and treatment, with and without food, after which a within-subject difference could be found between fed (high-fat meal) and fasted doses. Analysis of covariance was used to model these within-subject differences and to calculate 95% confidence intervals (CIs) for the differences for each dose (IR 30 mg and MR 30 mg). For study 2 only, the amounts of PF-06650833 in urine and renal clearance were listed and summarized descriptively. As part of the routine safety laboratory monitoring, the presence of any atypical crystals in urine specimens was semi-quantitatively assessed microscopically by typical histopathologic methods and scored as numbers of crystals per high power field (hpf); higher abundance (moderate or many) was defined as ≥ 15/hpf. No formal interim analyses were conducted.
4 In both studies, subjects were assigned to dose groups according to a pre-defined
5 randomization schedule. Each subject was given a unique Electronic Data Capture […]

CC[C@@H]1[C@H](F)C(=O)N[C@@H]1COc1nccc2cc(C(N)=O)c(OC)cc12 [PF-06650833, 1-{[(2S,3S,4S)-3-Ethyl-4-fluoro-5-oxopyrrolidin-2-yl]methoxy}-7-methoxyisoquinoline-6-carboxamide]
Mean terminal half-life t½: 9.4 to 11.7 h
CL/F, geometric mean (%CV) (1 mg): 194.3 (37) L/h
AUC(0-inf) (1 mg, AUCinf, geometric mean (%CV)): 0.00514 µg·h/mL
AUC(0-t) (1 mg, geometric mean (%CV)): 0.00492 µg·h/mL
Cmax (1 mg, geometric mean (%CV)): 0.00175 µg/mL
MRT (1 mg, mean ± SD): 3.12 ± 0.525 h
Tmax (1 mg): 1 h
Vd/F (1 mg, geometric mean (%CV)): 517 L
half-life (1 mg, t½, mean ± SD): 1.86 ± 0.24 h
CL/F, geometric mean (%CV) (3 mg): 173.1 (49) L/h
AUC(0-inf) (3 mg, AUCinf, geometric mean (%CV)): 0.0173 µg·h/mL
AUC(0-t) (3 mg, geometric mean (%CV)): 0.017 µg·h/mL
Cmax (3 mg, geometric mean (%CV)): 0.00554 µg/mL
MRT (3 mg, mean ± SD): 3.4 ± 0.622 h
Tmax (3 mg): 0.525 h
Vd/F (3 mg, geometric mean (%CV)): 567 L
half-life (3 mg, t½, mean ± SD): 2.34 ± 0.67 h
CL/F, geometric mean (%CV) (10 mg): 121.0 (48) L/h
AUC(0-inf) (10 mg, AUCinf, geometric mean (%CV)): 0.0827 µg·h/mL
AUC(0-t) (10 mg, geometric mean (%CV)): 0.0819 µg·h/mL
Cmax (10 mg, geometric mean (%CV)): 0.0226 µg/mL
MRT (10 mg, mean ± SD): 4.31 ± 0.787 h
Tmax (10 mg): 1 h
Vd/F (10 mg, geometric mean (%CV)): 618 L
half-life (10 mg, t½, mean ± SD): 3.54 ± 0.139 h
AUCinf (food-effect analysis) (30 mg): 0.2113 µg·h/mL
AUCinf, geometric mean (%CV) (30 mg): 206.4 (29) ng•h/mL
AUClast, geometric mean (%CV) (30 mg): 203.7 (29) ng•h/mL
AUC(0-inf) (30 mg, AUCinf (food-effect analysis)): 0.261 µg·h/mL
AUC(0-inf) (30 mg, AUCinf, geometric mean (%CV)): 0.263 µg·h/mL
AUC(0-t) (30 mg, geometric mean (%CV)): 0.249 µg·h/mL
AUCinf, geometric mean (%CV) (100 mg): 646.4 (48) ng•h/mL
AUClast, geometric mean (%CV) (100 mg): 549.4 (38) ng•h/mL
MRT, mean ± SD (100 mg): 11.2 ± 4.81 h
t½, mean ± SD (100 mg): 15.0 ± 5.22 h
AUC(0-inf) (100 mg, AUCinf, geometric mean (%CV)): 0.839 µg·h/mL
AUC(0-t) (100 mg, geometric mean (%CV)): 0.762 µg·h/mL
MRT (100 mg, mean ± SD): 19.3 ± 5.73 h
half-life (100 mg, t½, mean ± SD): 9.35 ± 3.62 h
AUCinf, geometric mean (%CV) (300 mg): 1477 (71) ng•h/mL
AUClast, geometric mean (%CV) (300 mg): 1436 (57) ng•h/mL
Tmax, median (range) (300 mg): 2 (0.500–2.00) h
Vz/F, geometric mean (%CV) (300 mg): 5310 (69) L
t½, mean ± SD (300 mg): 19.9 ± 9.54 h
AUC(0-inf) (300 mg, AUCinf, geometric mean (%CV)): 2.04 µg·h/mL
AUC(0-t) (300 mg, geometric mean (%CV)): 1.97 µg·h/mL
Tmax (300 mg): 4 h
Vd/F (300 mg, geometric mean (%CV)): 6820 L
half-life (300 mg, t½, mean ± SD): 38.8 ± 21.1 h
CL/F, geometric mean (%CV) (1000 mg): 411.4 (40) L/h
AUC(0-inf) (1000 mg, AUCinf, geometric mean (%CV)): 2.43 µg·h/mL
AUC(0-t) (1000 mg, geometric mean (%CV)): 2.27 µg·h/mL
Cmax (1000 mg, geometric mean (%CV)): 0.309 µg/mL
MRT (1000 mg, mean ± SD): 18.7 ± 4.37 h
Tmax (1000 mg): 0.75 h
Vd/F (1000 mg, geometric mean (%CV)): 14600 L
half-life (1000 mg, t½, mean ± SD): 44.9 ± 69.6 h
half-life (Mean terminal half-life t½): 10.2 to 15 h
